Measured values as given in patent US10760052B2, “Method of inhibiting tau phosphorylation” (priority 2012, dated 2020).

Experiments:
α7nAChR (Aβ42 binding) = assay: FITC-Aβ42 binding to biotinylated α7nAChR-containing SK-N-MC cell fragments; design: species or system human; details: added simultaneously, 30° C., 30 minutes
ERK2 = assay: Aβ42-induced ERK2 activation (pERK2) in rat frontal cortical synaptosomes; type: cell-based; details: simultaneous treatment
Procedure: FIG. 3 in two panels as FIG. 3A and FIG. 3B, illustrates that FLNA-binding compounds reduce Aβ-induced α7nAChR-mediated ERK2 signaling. In the same treated synaptosomes used in FIG. 2, levels of phosphorylated (activated) ERK2 were measured in immunoprecipitates of ERK2. […] Immunoprecipitates were determined by Western blotting (FIG. 3A) and quantified for four compounds by densitometry (FIG. 3B). n=3.
Phosphorylation of ERK2 indicates its activation, which leads to tau phosphorylation.

[1] = system: tau (pSer202, pThr231, pThr181); assay: Tau phosphorylation in organotypic frontocortical slice cultures; type: cell-based, rat; details: C0105 0.1, 1, 10 nM; C0114 1, 10 nM; simultaneous with Aβ42
Procedure: On the day of study, medium was removed, the brain slices rinsed and incubated in 0.1% FBS-containing medium for 4 hours at 36° C. in 5% CO2.
The levels of phosphorylated tau (pSer202tau, pThr231tau and pThr181tau) as well as total tau precipitated (loading controls) are assessed by Western blotting using specific antibodies directed against each of the phosphoepitopes and the anti-tau, respectively.

NMDAR [2] = assay: ICV Aβ42 infusion mouse model: NMDAR signaling molecules; type: in vivo; details: 10 mg/kg twice daily
Procedure: NMDAR signaling and their interaction with synaptic anchoring protein, PSD-95 were compared in synaptosomes from treated mice. NMDAR activation and signaling was initiated by incubation of 6 slices with either 0.3 mM Mg^2+ containing KR (LMKR; basal) or LMKR containing 10 μM NMDA and 1 μM glycine at 37° C. for 30 minutes.
Ligand stimulation was terminated by the addition of 1 ml of ice-cold Ca^2+-free K-R containing mixture of protein phosphatase inhibitors, 0.5 mM EGTA and 0.1 mM EDTA. After harvesting, tissues were briefly centrifuged and homogenized in 0.25 ml of ice-cold immunoprecipitation buffer. The homogenates were centrifuged at 1000×g for 5 minutes (4° C.) and the supernatant (post-mitochondrial fraction) was sonicated for 10 seconds on ice.
The resultant lysates were cleared by centrifugation at 50,000×g for 5 minutes and diluted with 0.75 ml of immunoprecipitation buffer. Protein concentrations were measured by Bradford method (Bio-Rad).
To determine the NMDARs association with PSD-95 as well as NMDAR signaling, the levels of NMDAR subunits, PSD-95 and NMDAR-associated signaling molecules were measured in anti-NR1 immunoprecipitates. In these studies, brain tissue lysates (100 μg) were immunoprecipitated overnight (about 18 hours) at 4° C. with 2 μg of immobilized anti-NR1 onto covalently conjugated protein A-agarose beads (Pierce-ENDOGEN). […]

α7nAChR-FLNA complex [3] = biological target: T1, α7nAChR-FLNA complex (Rattus norvegicus, UniProt A0A8I5ZV49); assay: Aβ42-induced α7nAChR-FLNA association in rat frontal cortical synaptosomes (co-immunoprecipitation/Western blot); type: cell-based
T1 construct: from tissue; host or cells: rat frontal cortex synaptosomes
T1 sequence (A0A8I5ZV49 entry or part of it, one chain of several): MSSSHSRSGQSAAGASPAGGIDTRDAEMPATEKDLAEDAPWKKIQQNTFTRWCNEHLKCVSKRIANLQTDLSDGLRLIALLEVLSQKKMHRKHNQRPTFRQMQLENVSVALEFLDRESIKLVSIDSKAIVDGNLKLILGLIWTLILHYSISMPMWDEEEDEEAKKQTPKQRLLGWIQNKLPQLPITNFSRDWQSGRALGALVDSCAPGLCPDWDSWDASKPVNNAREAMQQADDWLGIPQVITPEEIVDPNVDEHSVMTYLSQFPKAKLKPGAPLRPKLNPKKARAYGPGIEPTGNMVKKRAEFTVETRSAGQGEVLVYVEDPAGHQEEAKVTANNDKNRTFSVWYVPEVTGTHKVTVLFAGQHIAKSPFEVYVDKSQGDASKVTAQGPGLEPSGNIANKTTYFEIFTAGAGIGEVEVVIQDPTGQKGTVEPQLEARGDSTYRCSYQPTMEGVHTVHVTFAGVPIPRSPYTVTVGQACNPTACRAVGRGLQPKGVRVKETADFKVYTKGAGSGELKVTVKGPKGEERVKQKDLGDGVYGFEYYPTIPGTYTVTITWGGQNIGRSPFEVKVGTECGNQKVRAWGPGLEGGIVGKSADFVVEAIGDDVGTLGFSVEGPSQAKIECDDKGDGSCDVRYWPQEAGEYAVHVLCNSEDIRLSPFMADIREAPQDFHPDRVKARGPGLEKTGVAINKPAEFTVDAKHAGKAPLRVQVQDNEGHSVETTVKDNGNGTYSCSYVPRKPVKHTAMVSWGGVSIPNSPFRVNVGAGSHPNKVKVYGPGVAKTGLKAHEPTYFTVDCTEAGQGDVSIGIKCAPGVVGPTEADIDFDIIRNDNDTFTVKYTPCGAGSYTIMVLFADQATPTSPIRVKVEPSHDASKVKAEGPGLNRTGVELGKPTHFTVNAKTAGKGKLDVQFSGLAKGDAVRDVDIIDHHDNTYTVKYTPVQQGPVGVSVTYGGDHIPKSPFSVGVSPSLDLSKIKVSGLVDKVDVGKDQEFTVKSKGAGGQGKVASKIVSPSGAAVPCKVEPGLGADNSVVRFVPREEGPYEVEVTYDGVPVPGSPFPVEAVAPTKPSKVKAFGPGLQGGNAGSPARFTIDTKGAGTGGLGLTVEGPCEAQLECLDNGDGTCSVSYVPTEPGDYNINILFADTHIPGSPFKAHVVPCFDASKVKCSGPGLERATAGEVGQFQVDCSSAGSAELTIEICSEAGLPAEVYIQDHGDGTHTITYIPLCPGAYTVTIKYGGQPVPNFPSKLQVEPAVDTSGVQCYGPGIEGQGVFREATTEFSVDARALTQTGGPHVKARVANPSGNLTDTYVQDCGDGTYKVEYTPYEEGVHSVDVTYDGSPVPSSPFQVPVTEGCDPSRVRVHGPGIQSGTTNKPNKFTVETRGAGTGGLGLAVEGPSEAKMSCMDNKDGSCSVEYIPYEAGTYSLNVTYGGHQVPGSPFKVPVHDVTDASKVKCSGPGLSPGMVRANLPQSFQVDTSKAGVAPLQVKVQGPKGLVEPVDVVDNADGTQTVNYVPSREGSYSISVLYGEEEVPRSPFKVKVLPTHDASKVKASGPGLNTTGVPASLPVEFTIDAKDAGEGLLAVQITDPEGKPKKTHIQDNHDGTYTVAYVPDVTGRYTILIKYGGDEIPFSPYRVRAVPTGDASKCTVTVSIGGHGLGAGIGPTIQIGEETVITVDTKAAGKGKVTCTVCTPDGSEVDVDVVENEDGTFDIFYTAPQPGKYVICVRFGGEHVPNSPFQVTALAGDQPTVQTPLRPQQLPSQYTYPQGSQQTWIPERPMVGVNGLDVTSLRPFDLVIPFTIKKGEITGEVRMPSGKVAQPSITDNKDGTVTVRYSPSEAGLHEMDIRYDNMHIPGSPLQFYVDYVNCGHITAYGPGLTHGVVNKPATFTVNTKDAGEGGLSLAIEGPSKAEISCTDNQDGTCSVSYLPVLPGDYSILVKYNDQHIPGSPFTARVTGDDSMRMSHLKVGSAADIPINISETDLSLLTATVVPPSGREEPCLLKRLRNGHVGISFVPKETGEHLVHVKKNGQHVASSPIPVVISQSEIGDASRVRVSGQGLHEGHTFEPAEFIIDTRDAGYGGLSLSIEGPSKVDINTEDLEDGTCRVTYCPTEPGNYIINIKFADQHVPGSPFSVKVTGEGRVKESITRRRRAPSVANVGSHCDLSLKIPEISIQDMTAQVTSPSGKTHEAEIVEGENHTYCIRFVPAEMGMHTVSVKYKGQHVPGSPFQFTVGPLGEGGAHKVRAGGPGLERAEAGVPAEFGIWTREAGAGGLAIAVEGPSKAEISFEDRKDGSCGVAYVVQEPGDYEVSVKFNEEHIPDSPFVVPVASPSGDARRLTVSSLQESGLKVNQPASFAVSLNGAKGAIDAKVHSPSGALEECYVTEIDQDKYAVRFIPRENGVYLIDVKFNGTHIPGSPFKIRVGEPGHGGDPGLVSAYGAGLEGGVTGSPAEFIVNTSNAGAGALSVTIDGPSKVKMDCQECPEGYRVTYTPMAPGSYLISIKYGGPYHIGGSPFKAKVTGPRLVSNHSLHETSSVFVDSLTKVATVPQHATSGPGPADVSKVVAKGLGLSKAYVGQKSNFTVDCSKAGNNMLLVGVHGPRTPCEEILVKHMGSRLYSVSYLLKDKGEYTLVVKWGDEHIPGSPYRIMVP
From the text: The α7nAChR-FLNA complexes in the solubilized synaptosomes were immunoprecipitated with immobilized anti-FLNA and the α7nAChR and FLNA levels in the anti-FLNA immunoprecipitates determined by Western blotting (FIG. 2A) and quantified by densitometry (FIG. 2B). n=3. […] The letter designation “M” that accompanies many of the “C-series” compounds is omitted from FIG. 2, the remaining figures and most discussions of the figures and compounds hereinafter for ease in expression. Structural formulas of the compounds used in this and the other figures are provided hereinafter. […]

FLNA = biological target: T2, FLNA (Homo sapiens, UniProt P21333); assay: [3H]NLX competition binding to FLNA in A7 cell membranes; details: 0.5 nM [3H]NLX, N=4, read-out: IC50-L, inhibition of [3H]NLX binding
T2 construct: validate the use of that 5-mer peptide as a surrogate for the complete molecule in the assays carried out herein; host or cells: A7 cells

IL-6, TNF-α and IL-1β = assay: ICV Aβ42 infusion mouse model: cytokine levels (fluorescence ELISA); type: in vivo
Procedure: Following centrifugation, the resultant lysate was then dilute with 500 μl (total volume 600 μl) and used as the source of cytokines.
Plates were washed 3 times with ice-cold 50 mM Tris HCl (pH 7.4) and incubated at 30° C. with 100 μl of lysate derived from the above mentioned tissues for 1 hour.
Plates were washed 3 times with ice-cold 50 mM Tris HCl (pH 7.4) and incubated at 30° C. with 0.5 μg/well un-conjugated rabbit anti-TNF-α, anti-IL-6 and anti-IL-1β for 1 hour. After two washes with 50 mM Tris HCl (pH 7.4), each well was incubated in 0.5 μg/well FITC-conjugated anti-rabbit IgG (human and mouse absorbed) for 1 hour at 30° C. Plates were washed twice with 200 μl ice-cold Tris HCl, pH 7.4 and the residual FITC signals were determined by multimode plate reader, DTX880 (Beckman). Each lysate was surveyed twice.

NFT and Aβ42 aggregates = assay: Immunohistochemistry of NFT and Aβ42 aggregates in slice cultures; type: cell-based, rat; details: slice cultures incubated with Aβ42
Procedure: For immunohistochemistry, additional slices were removed and fixed in 4% paraformaldehyde in PBS at 4° C.
One section was immunostained with anti-NFT or -PHF.
Specimens were examined using a Nikon FXA microscope with a Princeton Instruments CCD camera and recorded digitally.
The correlations between the amount of NFT/PHF immunoreactivity and Aβ42-positive material accumulated within mature neurons were also determined.

[4] = system: voltage-gated Ca2+ channel mediated Ca2+ influx; type: in vivo, mouse; details: 10 mg/kg twice daily
NMDAR [5] = assay: Postmortem human frontal cortex: NMDAR signaling and association with PSD-95; type: cell-based; details: AD brain slices, 1 nM, one hour incubation
Procedure: NMDAR activation and signaling were initiated by incubation of approximately 10 mg of in vitro treated brain slices with either LMKR (basal) or LMKR containing 10 μM NMDA and 1 μM glycine at 37° C. for 30 minutes. […] Ligand stimulation was terminated by the addition of 1 ml of ice-cold Ca^2+-free K-R containing 0.5 mM EGTA and 0.1 mM EDTA.
Brain slices were harvested by a brief centrifugation and were homogenized in 0.25 ml of ice-cold immunoprecipitation buffer. The homogenates were centrifuged at 1000×g for 5 minutes (4° C.) and the supernatant (post-mitochondrial fraction) is sonicated for 10 seconds on ice. […] The resultant lysates are then cleared by centrifugation at 50,000×g for 5 minutes and diluted with 0.75 ml of immunoprecipitation buffer. Protein concentrations are measured by Bradford method (Bio-Rad).
To determine the NMDAR signaling and the NMDAR complexes association with PSD-95 [also known as Disks large homolog 4 (DLH4)], the levels of NMDAR subunits, PSD-95 and NMDAR-associated signaling molecules were measured in anti-NR1 immunoprecipitates.
In these studies, brain slice lysates (200 μg) were immunoprecipitated overnight (about 18 hours) at 4° C. with 2 μg of immobilized anti-NR1 onto covalently conjugated protein A-agarose beads (Pierce-ENDOGEN). […]

[6] = biological target: FLNA pentamer VAKGL of SEQ ID NO: 1 (Homo sapiens, UniProt P21333); assay: [3H]NLX displacement from biotinylated VAKGL peptide; details: Bn-VAKGL peptide; single IC50; N=4; read-out: IC50, inhibition of [3H]NLX binding
Procedure: Nonspecific binding was defined by 1 mM NTX. The reaction was terminated by addition of 1 ml of ice-cold binding medium. The [^3H]NLX-bound Bn-VAKGL was trapped by incubation with […] NeutrAvidin®-agarose (Thermo), followed by centrifugation. Following two 1.5 ml washes with PBS, the bound [^3H]NLX was determined using scintillation spectrometry. […] N=4.

α7nAChR-FLNA complex [7] = biological target: T3, α7nAChR-FLNA complex (Mus musculus, UniProt Q8BTM8); assay: ICV Aβ42 infusion mouse model: FLNA association with α7nAChR; type: in vivo; details: 10 mg/kg twice daily; prefrontal cortex and hippocampus
T3 construct: from tissue; host or cells: synaptosomes from prefrontal cortex and hippocampus of treated E129 mice
Procedure: . The anti-FLNA immunocomplexes were obtained by centrifugation, washed and dissociated using antigen elution buffer. […] The levels of FLNA-associated α7nAChRs and TLR4s were assessed by Western blotting and the blot stripped and re-probed for FLNA for immunoprecipitation/loading control.

[8] = system: tau (pSer202, pThr231, pThr181); assay: ICV Aβ42 infusion mouse model: tau phosphorylation; type: in vivo; details: 10 mg/kg twice daily
Procedure: The levels of phosphorylated tau (pSer202tau, pThr231tau and pThr181tau) as well as total tau precipitated (loading controls) were assessed by Western blotting using specific antibodies directed against each of the phosphoepitopes and the anti-tau, respectively.

TLR4-FLNA complex = biological target: T4, TLR4-FLNA complex (Homo sapiens, UniProt P21333); assay: Postmortem human frontal cortex: TLR4-FLNA association; type: cell-based; details: AD and Aβ42-treated control tissue; 0.1 or 1 nM
T4 construct: from tissue; host or cells: postmortem frontal cortex slices / synaptosomes (AD and control subjects)
Procedure: Postmortem frontal cortex tissues were gradually thawed (from −80° C. to −20° C.) and were sliced using a chilled McIlwain tissue chopper (200 μm×200 μm×3 mm). […] Following two additional washes with 1 ml of ice-cold K-R, brain slices were suspended in 1 ml of K-R.
Incubation continued for 1 hour in the dark to minimize light destruction of the test agents. […] Reaction was terminated by the addition of 1.5 ml of ice-cold Ca^2+-free K-R. Tissue slices were harvested by a brief centrifugation and used as the tissue sources for various assays.

insulin receptor (IR) = assay: ICV Aβ42 infusion mouse model: IR signaling; type: in vivo; details: 10 mg/kg twice daily
Procedure: IR activation and signaling was initiated by incubation of tissue with either K-R (basal) or K—R containing 1 nM insulin at 37° C. for 30 minutes. […] Ligand stimulation was terminated by the addition of 1 ml of ice-cold Ca^2+-free K-R containing mixture of protein phosphatase inhibitors, 0.5 mM EGTA and 0.1 mM EDTA.
Tissues were briefly centrifuged and homogenized in 0.25 ml of ice-cold immunoprecipitation buffer. The homogenates were centrifuged at 1000×g for 5 minutes (4° C.) and the supernatant (post-mitochondrial fraction) was sonicated for 10 seconds on ice. […] The resultant lysates were then cleared by centrifugation at 50,000×g for 5 minutes and diluted with 0.75 ml of immunoprecipitation buffer. Protein concentrations were measured by Bradford method (Bio-Rad).
In these studies, brain tissue lysates (100 μg) were immunoprecipitated overnight (about 18 hours) at 4° C. with 2 μg of immobilized anti-IRβ onto covalently conjugated protein A-agarose beads (Pierce-ENDOGEN).
Anti-IRβ immunoprecipitates were incubated with 75 μl antigen elution buffer (Pierce-ENDOGEN) and 2% SDS for 2 minutes on ice, centrifuged to remove antibody-protein A-agarose complexes and neutralized immediately with 10 μl 1.5 M Tris buffer, pH 8.8 followed by addition of 65 μl 2× PAGE sample buffer and boiled for 5 minutes. […]

α7nAChR = type: cell-based, human; details: AD and Aβ42-treated control brain slices

CN1CCC2(CC1)NCC(=O)N2Cc1ccccc1 [Compound C0105]
Inhibition of FITC-Aβ42 binding (α7nAChR (Aβ42 binding); 0.1 nM compound): 52.3±3.7% | Inhibition of FITC-Aβ42 binding (α7nAChR (Aβ42 binding); 1 nM compound): 55.1±3.0% | Inhibition of FITC-Aβ42 binding (α7nAChR (Aβ42 binding); 10 nM compound): 56.5±4.2% | ERK2 activation (pERK2) (ERK2): greatly suppressed | Aβ42-induced tau phosphorylation [1]: reduced tau phosphorylation at all three phosphorylation sites | Levels of NMDAR signaling molecules co-immunoprecipitating with NR-1 (NMDAR [2]): normalized | α7nAChR-FLNA association (ratio α7nAChR/FLNA) (α7nAChR-FLNA complex [3]; 1 or 10 nM compound, simultaneously or 10 minutes prior to Aβ42 (0.1 μM)): statistically different from Aβ42 alone | α7nAChR-FLNA association (α7nAChR-FLNA complex [3]; simultaneous administration with Aβ42): markedly reduced this coupling | IC50 (FLNA): 0.226 nM | Aβ42-induced IL-6 production (IL-6, TNF-α and IL-1β; 10 mg/kg twice daily): completely abolished | Suppression of IL-1β level (IL-6, TNF-α and IL-1β; 10 mg/kg twice daily): 80% | Suppression of TNF-α level (IL-6, TNF-α and IL-1β; 10 mg/kg twice daily): 86% | Decrease of levels of IL-6, TNF-α and IL-1 (IL-6, TNF-α and IL-1β; mice receiving C0105): 80-100% | Aβ42 aggregates immunostaining (NFT and Aβ42 aggregates): dramatically reduces | NFT immunostaining (pTau) (NFT and Aβ42 aggregates): dramatically reduces | K+-evoked calcium influx [4]: restored it | NMDAR signaling impairment (six measures) (NMDAR [5]): normalized all six measures | IC50 [6]: 0.00276 nM | Aβ42-induced increase in FLNA association with α7nAChR (α7nAChR-FLNA complex [7]): reduced Aβ42-induced increases in FLNA associations with both α7nAChR and TLR4 | Tau phosphorylation at three sites [8]: suppressed tau phosphorylation at all three phosphorylation sites | FLNA association with TLR4 (TLR4-FLNA complex): reduces Aβ42-induced FLNA association with α7nAChR and TLR4 | IR signaling (IRβ phosphorylation, IRS-1 association) (insulin receptor (IR)): restored | Functioning of α7nAChR (calcium influx after receptor stimulation) (α7nAChR): preserves functioning
